Data: ChEMBL document CHEMBL1201862, “PubChem BioAssay data set” (2004)
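Where inhibition never reached the appropriate level, the endpoint shown equals the highest concentration tested. Otherwise, values were interpolated linearly from a five-concentration, 48-hour dose response in 96-well plates. Abbreviation: GI50, concentration required for 50% inhibition of growth.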 Calls of active or inactive are those of the source. Rule as the data show it: active = GI50 up to about 1.1 µM and inactive = higher.

Columns and labels:
Experiment in all cases: inhibition of tumour cell growth, NCI panel, 48 h
786-0 = test system: 786-0
A549 = test system: A549
ACHN = test system: ACHN
BT-549 = test system: BT-549
CAKI-1 = test system: CAKI-1
CCRF-CEM = test system: CCRF-CEM
COLO 205 = test system: COLO 205
DU-145 = test system: DU-145
EKVX = test system: EKVX
HCT-116 = test system: HCT-116
HCT-15 = test system: HCT-15
HOP-62 = test system: HOP-62
HOP-92 = test system: HOP-92
HT-29 = test system: HT-29
Hs-578T = test system: Hs-578T
IGROV-1 = test system: IGROV-1
K562 = test system: K562
KM12 = test system: KM12
LOX IMVI = test system: LOX IMVI
M14 = test system: M14
MCF7 = test system: MCF7
MDA-MB-231 = test system: MDA-MB-231
MDA-MB-435 = test system: MDA-MB-435
MDA-N = test system: MDA-N
MOLT-4 = test system: MOLT-4
NCI-H23 = test system: NCI-H23
NCI-H460 = test system: NCI-H460
NCI-H522 = test system: NCI-H522
NCI/ADR-RES = test system: NCI/ADR-RES
OVCAR-3 = test system: OVCAR-3
OVCAR-4 = test system: OVCAR-4
OVCAR-5 = test system: OVCAR-5
OVCAR-8 = test system: OVCAR-8
PC-3 = test system: PC-3
RPMI-8226 = test system: RPMI-8226
RXF 393 = test system: RXF 393
SF-268 = test system: SF-268
SF-295 = test system: SF-295
SF-539 = test system: SF-539
SK-MEL-2 = test system: SK-MEL-2
SK-MEL-5 = test system: SK-MEL-5
SK-OV-3 = test system: SK-OV-3
SN12C = test system: SN12C
SNB-19 = test system: SNB-19
SNB-75 = test system: SNB-75
SR = test system: SR
SW-620 = test system: SW-620
TK-10 = test system: TK-10
U-251 = test system: U-251
UACC-257 = test system: UACC-257
UACC-62 = test system: UACC-62
UO-31 = test system: UO-31
A498 = test system: A498
HCC 2998 = test system: HCC 2998
HL-60 = test system: HL-60
Malme-3M = test system: Malme-3M
NCI-H226 = test system: NCI-H226
SK-MEL-28 = test system: SK-MEL-28

In the case of `COc1c(C)c(C/C=C(\C)CCCCO)c(OC)c(OC)c1OC`, the GI50 (786-0) was > 100 µM (inactive), the GI50 (A549) was 23.7 µM (inactive) and the GI50 (ACHN) was > 100 µM (inactive). For the same molecule, the GI50 (BT-549) was > 100 µM (inactive), the GI50 (CAKI-1) was 0.112 µM (active) and the GI50 (CCRF-CEM) was 45.6 µM (inactive). For the same molecule, the GI50 (COLO 205) was > 100 µM (inactive), the GI50 (DU-145) was > 100 µM (inactive) and the GI50 (EKVX) was > 100 µM (inactive). The GI50 (HCT-116) was > 100 µM (inactive), the GI50 (HCT-15) was > 100 µM and the GI50 (HOP-62) was > 100 µM (inactive). For the same molecule, the GI50 (HOP-92) was > 100 µM (inactive), the GI50 (HT-29) was > 100 µM (inactive) and the GI50 (Hs-578T) was > 100 µM (inactive). For the same molecule, the GI50 (IGROV-1) was 45.2 µM (inactive), the GI50 (K562) was 24.4 µM (inactive) and the GI50 (KM12) was 19.1 µM (inactive). The GI50 (LOX IMVI) was 25.5 µM (inactive), the GI50 (M14) was > 100 µM (inactive) and the GI50 (MCF7) was > 100 µM (inactive). For the same molecule, the GI50 (MDA-MB-231) was > 100 µM (inactive), the GI50 (MDA-MB-435) was > 100 µM (inactive) and the GI50 (MDA-N) was > 100 µM (inactive). The GI50 (MOLT-4) was 73.6 µM (inactive), the GI50 (NCI-H23) was > 100 µM (inactive) and the GI50 (NCI-H460) was 18 µM (inactive). The GI50 (NCI-H522) was > 100 µM (inactive), the GI50 (NCI/ADR-RES) was > 100 µM (inactive) and the GI50 (OVCAR-3) was > 100 µM (inactive). The GI50 (OVCAR-4) was > 100 µM (inactive), the GI50 (OVCAR-5) was > 100 µM (inactive) and the GI50 (OVCAR-8) was > 100 µM (inactive). For the same molecule, the GI50 (PC-3) was > 100 µM (inactive), the GI50 (RPMI-8226) was 10.3 µM (inactive) and the GI50 (RXF 393) was > 100 µM (inactive). The GI50 (SF-268) was > 100 µM (inactive), the GI50 (SF-295) was 48.6 µM (inactive) and the GI50 (SF-539) was > 100 µM (inactive). For the same molecule, the GI50 (SK-MEL-2) was > 100 µM (inactive), the GI50 (SK-MEL-5) was 88.7 µM (inactive) and the GI50 (SK-OV-3) was > 100 µM (inactive). The GI50 (SN12C) was 28.7 µM (inactive), the GI50 (SNB-19) was > 100 µM (inactive) and the GI50 (SNB-75) was > 100 µM (inactive). The GI50 (SR) was 95.7 µM (inactive), the GI50 (SW-620) was > 100 µM (inactive) and the GI50 (TK-10) was > 100 µM (inactive). The GI50 (U-251) was > 100 µM (inactive), the GI50 (UACC-257) was > 100 µM (inactive) and the GI50 (UACC-62) was > 100 µM (inactive). For the same molecule, the GI50 (UO-31) was > 100 µM (inactive).
`COc1ccc(OC)c(CNc2ccc(C(=O)O)cc2)c1` was tested, and the GI50 (786-0) was > 100 µM (inactive), the GI50 (A498) was > 100 µM (inactive) and the GI50 (A549) was > 100 µM (inactive). For the same molecule, the GI50 (ACHN) was > 100 µM (inactive), the GI50 (BT-549) was > 100 µM (inactive) and the GI50 (CAKI-1) was > 100 µM (inactive). The GI50 (CCRF-CEM) was > 100 µM (inactive), the GI50 (COLO 205) was > 100 µM (inactive) and the GI50 (DU-145) was > 100 µM (inactive). The GI50 (EKVX) was > 100 µM (inactive), the GI50 (HCC 2998) was > 100 µM (inactive) and the GI50 (HCT-116) was > 100 µM (inactive). For the same molecule, the GI50 (HCT-15) was > 100 µM, the GI50 (HL-60) was > 100 µM (inactive) and the GI50 (HOP-92) was > 100 µM (inactive). The GI50 (HT-29) was > 100 µM (inactive), the GI50 (Hs-578T) was > 100 µM (inactive) and the GI50 (IGROV-1) was > 100 µM (inactive). For the same molecule, the GI50 (K562) was > 100 µM (inactive), the GI50 (KM12) was > 100 µM (inactive) and the GI50 (LOX IMVI) was > 100 µM (inactive). The GI50 (M14) was > 100 µM (inactive), the GI50 (MCF7) was > 100 µM (inactive) and the GI50 (MDA-MB-231) was > 100 µM (inactive). The GI50 (MDA-MB-435) was > 100 µM (inactive), the GI50 (MDA-N) was > 100 µM (inactive) and the GI50 (MOLT-4) was > 100 µM (inactive). For the same molecule, the GI50 (Malme-3M) was > 100 µM (inactive), the GI50 (NCI-H226) was > 100 µM (inactive) and the GI50 (NCI-H23) was > 100 µM (inactive). For the same molecule, the GI50 (NCI-H522) was > 100 µM (inactive), the GI50 (NCI/ADR-RES) was > 100 µM (inactive) and the GI50 (OVCAR-3) was > 100 µM (inactive). For the same molecule, the GI50 (OVCAR-4) was > 100 µM (inactive), the GI50 (OVCAR-5) was > 100 µM (inactive) and the GI50 (OVCAR-8) was > 100 µM (inactive). For the same molecule, the GI50 (PC-3) was > 100 µM (inactive), the GI50 (RPMI-8226) was > 100 µM (inactive) and the GI50 (SF-268) was > 100 µM (inactive). For the same molecule, the GI50 (SF-539) was > 100 µM (inactive), the GI50 (SK-MEL-28) was > 100 µM (inactive) and the GI50 (SK-MEL-2) was > 100 µM (inactive). For the same molecule, the GI50 (SK-MEL-5) was > 100 µM (inactive), the GI50 (SK-OV-3) was > 100 µM (inactive) and the GI50 (SNB-19) was > 100 µM (inactive). For the same molecule, the GI50 (SNB-75) was > 100 µM (inactive), the GI50 (SR) was > 100 µM (inactive) and the GI50 (SW-620) was > 100 µM (inactive). The GI50 (TK-10) was > 100 µM (inactive), the GI50 (U-251) was > 100 µM (inactive) and the GI50 (UACC-257) was > 100 µM (inactive). The GI50 (UACC-62) was > 100 µM (inactive) and the GI50 (UO-31) was > 100 µM (inactive).
For `Cc1cc2c3c(c1)S(=O)(=O)c1cc(Cl)ccc1N3CCC2`, the GI50 (786-0) was 82.2 µM (inactive), the GI50 (A498) was > 100 µM (inactive) and the GI50 (A549) was > 100 µM (inactive). The GI50 (ACHN) was > 100 µM (inactive), the GI50 (BT-549) was > 100 µM (inactive) and the GI50 (CAKI-1) was > 100 µM (inactive). For the same molecule, the GI50 (CCRF-CEM) was > 100 µM (inactive), the GI50 (COLO 205) was > 100 µM (inactive) and the GI50 (DU-145) was > 100 µM (inactive). The GI50 (EKVX) was > 100 µM (inactive), the GI50 (HCC 2998) was > 100 µM (inactive) and the GI50 (HCT-116) was > 100 µM (inactive). For the same molecule, the GI50 (HCT-15) was > 100 µM, the GI50 (HL-60) was > 100 µM (inactive) and the GI50 (HOP-62) was 76.7 µM (inactive). The GI50 (HOP-92) was > 100 µM (inactive), the GI50 (HT-29) was > 100 µM (inactive) and the GI50 (Hs-578T) was 22 µM (inactive). For the same molecule, the GI50 (IGROV-1) was 84.3 µM (inactive), the GI50 (K562) was 96.8 µM (inactive) and the GI50 (KM12) was > 100 µM (inactive). For the same molecule, the GI50 (LOX IMVI) was > 100 µM (inactive), the GI50 (M14) was > 100 µM (inactive) and the GI50 (MCF7) was > 100 µM (inactive). For the same molecule, the GI50 (MDA-MB-231) was 83.9 µM (inactive), the GI50 (MDA-MB-435) was > 100 µM (inactive) and the GI50 (MDA-N) was > 100 µM (inactive). The GI50 (MOLT-4) was 57.7 µM (inactive), the GI50 (Malme-3M) was > 100 µM (inactive) and the GI50 (NCI-H226) was > 100 µM (inactive). For the same molecule, the GI50 (NCI-H460) was > 100 µM (inactive), the GI50 (NCI/ADR-RES) was > 100 µM (inactive) and the GI50 (OVCAR-3) was > 100 µM (inactive). The GI50 (OVCAR-4) was 64.3 µM (inactive), the GI50 (OVCAR-5) was > 100 µM (inactive) and the GI50 (OVCAR-8) was > 100 µM (inactive). The GI50 (PC-3) was 88.1 µM (inactive), the GI50 (RXF 393) was 55.2 µM (inactive) and the GI50 (SF-268) was > 100 µM (inactive). For the same molecule, the GI50 (SF-295) was 56 µM (inactive), the GI50 (SF-539) was > 100 µM (inactive) and the GI50 (SK-MEL-28) was > 100 µM (inactive). For the same molecule, the GI50 (SK-MEL-2) was > 100 µM (inactive), the GI50 (SK-MEL-5) was > 100 µM (inactive) and the GI50 (SK-OV-3) was > 100 µM (inactive). The GI50 (SN12C) was > 100 µM (inactive), the GI50 (SNB-19) was > 100 µM (inactive) and the GI50 (SNB-75) was 58.5 µM (inactive). The GI50 (SR) was > 100 µM (inactive), the GI50 (SW-620) was > 100 µM (inactive) and the GI50 (TK-10) was > 100 µM (inactive). For the same molecule, the GI50 (UACC-257) was 60.8 µM (inactive), the GI50 (UACC-62) was > 100 µM (inactive) and the GI50 (UO-31) was > 100 µM (inactive).
